# According to ChEMBL document CHEMBL5696441 (Nat Chem Biol, 2011):
# Assays:
# [1] = target: T1, Mitogen-activated protein kinase kinase kinase kinase 2 (Homo sapiens) (UniProt Q12851); test: Inhibition of MAP4K2 (unknown origin) assessed as remaining activity at 1 uM by Kinome scan method relative to control
# T1 sequence (whole entry): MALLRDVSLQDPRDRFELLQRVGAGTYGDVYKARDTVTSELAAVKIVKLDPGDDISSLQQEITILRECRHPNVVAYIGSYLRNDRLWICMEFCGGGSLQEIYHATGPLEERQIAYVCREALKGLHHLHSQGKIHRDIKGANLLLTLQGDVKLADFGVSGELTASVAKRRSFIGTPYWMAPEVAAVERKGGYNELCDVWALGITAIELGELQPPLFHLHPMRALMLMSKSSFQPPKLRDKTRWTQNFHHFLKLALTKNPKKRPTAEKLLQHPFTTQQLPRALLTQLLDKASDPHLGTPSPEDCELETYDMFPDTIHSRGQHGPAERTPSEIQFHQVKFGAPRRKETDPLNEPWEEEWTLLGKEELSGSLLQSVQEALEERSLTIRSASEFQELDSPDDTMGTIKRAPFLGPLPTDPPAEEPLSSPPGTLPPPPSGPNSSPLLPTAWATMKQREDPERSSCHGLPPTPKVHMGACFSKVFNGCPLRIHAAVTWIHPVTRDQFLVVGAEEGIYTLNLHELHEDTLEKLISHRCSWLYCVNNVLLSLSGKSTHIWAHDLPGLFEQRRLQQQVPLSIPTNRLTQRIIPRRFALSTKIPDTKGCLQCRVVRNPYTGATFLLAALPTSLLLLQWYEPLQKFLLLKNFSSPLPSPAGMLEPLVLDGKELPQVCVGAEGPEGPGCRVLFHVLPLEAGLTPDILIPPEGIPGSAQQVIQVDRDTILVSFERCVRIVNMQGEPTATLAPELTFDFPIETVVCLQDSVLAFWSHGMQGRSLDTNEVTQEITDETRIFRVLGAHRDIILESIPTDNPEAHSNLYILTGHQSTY
# [2] = target: Rhodopsin kinase GRK1 (Homo sapiens) (UniProt Q15835); test: Inhibition of GRK1 (unknown origin) assessed as remaining activity at 1 uM by Kinome scan method relative to control
# Sequence of Rhodopsin kinase GRK1 (Homo sapiens) (Q15835 whole entry): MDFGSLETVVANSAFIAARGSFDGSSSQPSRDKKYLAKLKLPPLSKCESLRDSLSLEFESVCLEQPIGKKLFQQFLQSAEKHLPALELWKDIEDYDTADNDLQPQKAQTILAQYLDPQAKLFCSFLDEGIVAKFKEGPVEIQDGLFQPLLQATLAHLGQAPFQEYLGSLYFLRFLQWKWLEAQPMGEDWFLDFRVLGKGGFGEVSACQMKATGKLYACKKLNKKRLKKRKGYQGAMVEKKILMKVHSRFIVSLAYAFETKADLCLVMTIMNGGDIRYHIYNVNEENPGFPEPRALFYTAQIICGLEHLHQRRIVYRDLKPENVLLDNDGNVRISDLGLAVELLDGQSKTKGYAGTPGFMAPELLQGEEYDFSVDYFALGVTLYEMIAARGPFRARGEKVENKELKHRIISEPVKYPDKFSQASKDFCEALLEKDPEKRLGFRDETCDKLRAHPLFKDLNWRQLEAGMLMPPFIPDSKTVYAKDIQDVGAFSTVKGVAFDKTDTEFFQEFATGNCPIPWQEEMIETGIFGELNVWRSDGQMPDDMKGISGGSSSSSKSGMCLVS
# [3] = target: Insulin receptor (Homo sapiens) (UniProt P06213); test: Inhibition of INSR (unknown origin) assessed as remaining activity at 1 uM by Kinome scan method relative to control
# Sequence of Insulin receptor (Homo sapiens) (P06213 28-758 limits assumed): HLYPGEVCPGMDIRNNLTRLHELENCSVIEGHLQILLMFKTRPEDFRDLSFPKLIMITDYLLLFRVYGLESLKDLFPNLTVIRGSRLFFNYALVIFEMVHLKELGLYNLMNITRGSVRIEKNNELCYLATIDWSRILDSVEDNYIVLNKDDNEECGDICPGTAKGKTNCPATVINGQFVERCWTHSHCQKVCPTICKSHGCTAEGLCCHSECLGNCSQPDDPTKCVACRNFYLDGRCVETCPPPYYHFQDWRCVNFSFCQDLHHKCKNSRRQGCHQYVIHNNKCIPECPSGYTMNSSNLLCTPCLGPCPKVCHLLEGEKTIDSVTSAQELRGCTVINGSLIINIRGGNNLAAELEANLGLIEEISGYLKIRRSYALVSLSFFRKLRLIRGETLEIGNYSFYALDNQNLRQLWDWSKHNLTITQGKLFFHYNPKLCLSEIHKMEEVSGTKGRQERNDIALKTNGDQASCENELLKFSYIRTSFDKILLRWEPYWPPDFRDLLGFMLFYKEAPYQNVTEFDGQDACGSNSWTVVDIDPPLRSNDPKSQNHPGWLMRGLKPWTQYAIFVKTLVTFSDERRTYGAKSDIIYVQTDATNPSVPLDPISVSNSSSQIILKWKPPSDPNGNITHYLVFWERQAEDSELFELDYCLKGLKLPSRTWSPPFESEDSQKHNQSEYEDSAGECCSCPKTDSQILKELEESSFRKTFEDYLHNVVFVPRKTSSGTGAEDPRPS
# Sequence of Insulin receptor (Homo sapiens) (P06213 763-1382 limits assumed): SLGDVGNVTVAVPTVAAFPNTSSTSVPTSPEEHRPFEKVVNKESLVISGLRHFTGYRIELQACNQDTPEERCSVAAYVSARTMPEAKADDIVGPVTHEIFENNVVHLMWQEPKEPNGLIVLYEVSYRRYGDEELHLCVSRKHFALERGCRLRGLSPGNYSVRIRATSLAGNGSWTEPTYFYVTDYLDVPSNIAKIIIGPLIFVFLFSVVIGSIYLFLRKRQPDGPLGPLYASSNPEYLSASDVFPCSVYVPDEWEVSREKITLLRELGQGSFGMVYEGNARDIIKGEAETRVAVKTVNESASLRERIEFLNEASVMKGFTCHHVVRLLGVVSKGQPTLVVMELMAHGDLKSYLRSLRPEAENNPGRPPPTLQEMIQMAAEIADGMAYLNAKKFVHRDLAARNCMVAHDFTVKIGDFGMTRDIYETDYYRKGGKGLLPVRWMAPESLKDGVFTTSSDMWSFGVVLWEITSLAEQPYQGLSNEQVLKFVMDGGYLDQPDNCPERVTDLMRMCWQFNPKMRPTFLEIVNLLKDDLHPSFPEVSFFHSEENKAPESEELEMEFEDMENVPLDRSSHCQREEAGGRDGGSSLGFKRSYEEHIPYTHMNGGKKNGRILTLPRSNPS
# [4] = target: RAC-gamma serine/threonine-protein kinase (Homo sapiens) (UniProt Q9Y243); test: Inhibition of AKT3 (unknown origin) assessed as remaining activity at 1 uM by Kinome scan method relative to control
# Sequence of RAC-gamma serine/threonine-protein kinase (Homo sapiens) (Q9Y243 whole entry): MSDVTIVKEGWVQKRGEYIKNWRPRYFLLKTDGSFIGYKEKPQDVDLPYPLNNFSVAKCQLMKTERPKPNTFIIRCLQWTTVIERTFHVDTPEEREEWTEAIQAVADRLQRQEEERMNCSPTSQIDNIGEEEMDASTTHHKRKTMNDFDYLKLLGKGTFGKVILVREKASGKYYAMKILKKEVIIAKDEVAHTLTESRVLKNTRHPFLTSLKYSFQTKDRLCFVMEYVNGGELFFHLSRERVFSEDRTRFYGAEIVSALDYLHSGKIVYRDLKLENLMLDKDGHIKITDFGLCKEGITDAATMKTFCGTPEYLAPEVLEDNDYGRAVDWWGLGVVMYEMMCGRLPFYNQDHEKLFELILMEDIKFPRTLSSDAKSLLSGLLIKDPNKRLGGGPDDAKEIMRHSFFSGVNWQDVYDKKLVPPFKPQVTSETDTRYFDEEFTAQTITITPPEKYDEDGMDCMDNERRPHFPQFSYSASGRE
# [5] = target: Protein-tyrosine kinase 6 (Homo sapiens) (UniProt Q13882); test: Inhibition of BRK (unknown origin) assessed as remaining activity at 1 uM by Kinome scan method relative to control
# Sequence of Protein-tyrosine kinase 6 (Homo sapiens) (Q13882 whole entry, looked up): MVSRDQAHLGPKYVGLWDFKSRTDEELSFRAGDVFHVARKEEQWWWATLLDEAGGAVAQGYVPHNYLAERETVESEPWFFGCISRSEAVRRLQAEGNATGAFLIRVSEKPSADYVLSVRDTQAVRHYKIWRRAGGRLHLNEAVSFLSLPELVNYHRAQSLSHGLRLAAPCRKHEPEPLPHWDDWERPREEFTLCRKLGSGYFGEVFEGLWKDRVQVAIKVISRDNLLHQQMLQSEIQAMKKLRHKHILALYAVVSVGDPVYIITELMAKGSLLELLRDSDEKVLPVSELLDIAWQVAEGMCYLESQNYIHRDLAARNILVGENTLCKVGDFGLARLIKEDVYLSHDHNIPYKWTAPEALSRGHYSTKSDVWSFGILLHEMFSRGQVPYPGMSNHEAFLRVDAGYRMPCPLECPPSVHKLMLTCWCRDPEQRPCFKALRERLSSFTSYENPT
# [6] = tested on: Mast/stem cell growth factor receptor Kit (Homo sapiens), P10721 [D816V]; test: Inhibition of KIT D816V mutant (unknown origin) assessed as remaining activity at 1 uM by Kinome scan method relative to control
# Sequence of Mast/stem cell growth factor receptor Kit (Homo sapiens), P10721 [D816V] (P10721 whole entry D816V, the tested form may be a part): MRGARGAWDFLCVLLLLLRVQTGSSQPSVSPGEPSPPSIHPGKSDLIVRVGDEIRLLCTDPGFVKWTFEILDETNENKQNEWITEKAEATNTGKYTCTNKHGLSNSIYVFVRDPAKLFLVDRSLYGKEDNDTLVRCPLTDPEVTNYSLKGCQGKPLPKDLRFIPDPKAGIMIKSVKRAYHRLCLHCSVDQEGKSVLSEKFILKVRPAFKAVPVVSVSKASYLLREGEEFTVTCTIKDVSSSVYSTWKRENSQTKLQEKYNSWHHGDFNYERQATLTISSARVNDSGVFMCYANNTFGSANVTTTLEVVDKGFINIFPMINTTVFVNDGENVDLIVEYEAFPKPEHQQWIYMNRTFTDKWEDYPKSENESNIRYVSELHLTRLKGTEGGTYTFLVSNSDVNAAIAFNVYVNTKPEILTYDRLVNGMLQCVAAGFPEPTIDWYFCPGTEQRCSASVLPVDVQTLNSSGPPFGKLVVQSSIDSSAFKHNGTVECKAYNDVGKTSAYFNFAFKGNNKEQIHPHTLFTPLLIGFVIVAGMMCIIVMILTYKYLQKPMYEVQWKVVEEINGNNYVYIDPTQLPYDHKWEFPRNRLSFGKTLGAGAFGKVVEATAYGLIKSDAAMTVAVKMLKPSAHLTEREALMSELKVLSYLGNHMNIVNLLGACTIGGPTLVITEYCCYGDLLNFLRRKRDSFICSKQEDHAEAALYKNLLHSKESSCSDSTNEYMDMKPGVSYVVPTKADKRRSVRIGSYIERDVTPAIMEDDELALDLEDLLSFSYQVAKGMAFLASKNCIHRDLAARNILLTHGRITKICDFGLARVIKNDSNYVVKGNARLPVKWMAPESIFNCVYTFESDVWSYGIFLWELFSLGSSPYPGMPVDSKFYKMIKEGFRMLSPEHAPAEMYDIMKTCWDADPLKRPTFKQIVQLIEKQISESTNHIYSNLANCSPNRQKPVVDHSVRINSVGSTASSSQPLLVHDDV
# [7] = target: Epithelial discoidin domain-containing receptor 1 (Homo sapiens) (UniProt Q08345); test: Inhibition of DDR1 (unknown origin) assessed as remaining activity at 1 uM by Kinome scan method relative to control
# [8] = target: Ephrin type-B receptor 6 (Homo sapiens) (UniProt O15197); test: Inhibition of EPHB6 (unknown origin) assessed as remaining activity at 1 uM by Kinome scan method relative to control
# Sequence of Ephrin type-B receptor 6 (Homo sapiens) (O15197 whole entry): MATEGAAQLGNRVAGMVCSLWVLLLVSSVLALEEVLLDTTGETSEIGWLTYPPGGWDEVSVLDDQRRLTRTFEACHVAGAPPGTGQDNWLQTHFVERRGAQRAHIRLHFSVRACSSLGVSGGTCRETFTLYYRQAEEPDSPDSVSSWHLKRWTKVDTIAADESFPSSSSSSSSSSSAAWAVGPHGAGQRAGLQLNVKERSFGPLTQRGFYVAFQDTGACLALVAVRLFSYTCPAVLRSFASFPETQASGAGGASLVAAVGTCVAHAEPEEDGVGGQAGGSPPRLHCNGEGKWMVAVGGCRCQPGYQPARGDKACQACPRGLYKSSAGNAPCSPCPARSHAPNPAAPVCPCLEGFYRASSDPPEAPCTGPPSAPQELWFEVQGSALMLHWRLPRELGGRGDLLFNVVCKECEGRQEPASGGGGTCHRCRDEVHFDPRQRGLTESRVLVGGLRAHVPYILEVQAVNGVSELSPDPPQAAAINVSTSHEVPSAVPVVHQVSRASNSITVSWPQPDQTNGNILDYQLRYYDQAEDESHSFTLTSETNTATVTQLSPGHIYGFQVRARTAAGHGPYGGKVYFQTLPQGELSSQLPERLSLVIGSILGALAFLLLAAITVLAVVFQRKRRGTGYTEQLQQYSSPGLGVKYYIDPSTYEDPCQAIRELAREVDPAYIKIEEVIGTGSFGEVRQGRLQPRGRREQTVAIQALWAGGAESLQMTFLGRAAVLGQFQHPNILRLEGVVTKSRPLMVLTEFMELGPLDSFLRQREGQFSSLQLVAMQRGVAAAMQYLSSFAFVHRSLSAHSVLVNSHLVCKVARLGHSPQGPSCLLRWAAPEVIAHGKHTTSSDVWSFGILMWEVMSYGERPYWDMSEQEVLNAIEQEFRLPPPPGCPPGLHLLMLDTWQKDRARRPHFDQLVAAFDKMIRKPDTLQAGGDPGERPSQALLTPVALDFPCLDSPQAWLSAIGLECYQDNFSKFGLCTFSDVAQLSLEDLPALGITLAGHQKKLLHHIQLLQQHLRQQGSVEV
# [9] = target: T2, Ephrin type-B receptor 4 (Homo sapiens) (UniProt P54760); test: Inhibition of EPHB4 (unknown origin) assessed as remaining activity at 1 uM by Kinome scan method relative to control
# T2 sequence (whole entry): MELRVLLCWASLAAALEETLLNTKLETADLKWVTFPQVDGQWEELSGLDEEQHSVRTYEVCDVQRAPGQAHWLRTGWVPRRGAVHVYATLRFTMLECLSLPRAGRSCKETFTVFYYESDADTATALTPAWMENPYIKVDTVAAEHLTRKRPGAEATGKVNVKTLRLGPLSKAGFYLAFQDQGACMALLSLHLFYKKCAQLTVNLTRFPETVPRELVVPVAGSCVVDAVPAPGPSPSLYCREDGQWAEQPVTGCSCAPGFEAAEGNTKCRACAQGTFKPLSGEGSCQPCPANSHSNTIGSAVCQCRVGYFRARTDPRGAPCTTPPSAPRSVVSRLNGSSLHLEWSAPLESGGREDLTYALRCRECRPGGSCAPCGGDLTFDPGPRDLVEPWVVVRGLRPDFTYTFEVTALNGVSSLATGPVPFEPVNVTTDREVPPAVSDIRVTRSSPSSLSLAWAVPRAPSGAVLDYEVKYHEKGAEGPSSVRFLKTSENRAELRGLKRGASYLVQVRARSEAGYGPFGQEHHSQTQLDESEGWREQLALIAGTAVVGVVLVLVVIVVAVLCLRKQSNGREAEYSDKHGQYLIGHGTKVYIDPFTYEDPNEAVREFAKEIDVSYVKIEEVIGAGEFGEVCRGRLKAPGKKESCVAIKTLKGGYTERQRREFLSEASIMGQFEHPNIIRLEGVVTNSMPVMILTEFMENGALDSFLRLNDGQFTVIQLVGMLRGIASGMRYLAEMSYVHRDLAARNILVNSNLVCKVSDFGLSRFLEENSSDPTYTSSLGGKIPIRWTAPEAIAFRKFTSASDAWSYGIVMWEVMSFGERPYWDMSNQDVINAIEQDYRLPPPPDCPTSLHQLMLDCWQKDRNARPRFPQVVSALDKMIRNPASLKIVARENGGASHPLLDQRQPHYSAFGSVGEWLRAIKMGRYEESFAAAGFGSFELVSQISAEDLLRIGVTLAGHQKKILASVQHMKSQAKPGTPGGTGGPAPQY
SMILES,Activity [1] [%],Activity [2] [%],Activity [3] [%],Activity [4] [%],Activity [5] [%],Activity [6] [%],Activity [7] [%],Activity [8] [%],Activity [9] [%]
Nc1ccccc1Nc1ccc2c(c1)CCc1ccccc1C2=O,99,84,83,88,97,85,80,99,97
O=C1c2ccc(Nc3ccc(F)cc3F)cc2CCc2ccc(OC[C@H](O)CO)cc21 [Skepinone-L],94,76,99,90,98,89,85,91,100
